Data: patent publication US12161694B2, “Methods and compositions for regulating innate lymphoid cell inflammatory responses” (The Broad Institute, Inc., priority 2017, dated 2024)
“Also recorded” adds a separate entry of the source. Where no end group is shown, it is not given here.

Assays:
eosinophils = assay: Eosinophils in lung parenchyma and BALF after in vivo treatment (flow cytometry); set-up: species or system mouse
Experimental: (§1) Mice and in vivo ILC activation. C57Bl/6J mice were purchased from the Jackson Laboratory. Nmur1-LacZ reporter mice with a LacZ cassette knocked into the Nmur1 locus were rederived from Nmur1^tm1.1(KOMP)Vleg sperm obtained from the trans-NIH Knock-Out Mouse Project (KOMP) Repository. Mice were housed under specific-pathogen-free conditions. For experiments, mice were matched for sex and age, and most mice were 6-10 weeks old. […] The total administered volume was 20 μl for all conditions. Mice were randomly assigned to treatment groups after matching for sex and age. […] Mice were treated intranasally with 10 μg HDM on day 0, 7, 8, and 9, prior to sacrifice on day 10. All experiments were conducted in accordance with animal protocols approved by the Harvard Medical Area Standing Committee on Animals or BWH IACUC.
Flow cytometry. […] Cells were stained on ice with antibodies for surface molecules and the live/dead marker 7AAD and analyzed on a LSRFortessa (BD Biosciences). […]
Lung analysis. […] BALF was centrifuged, and the supernatant was used for analyzing cytokine levels and the cell pellet was resuspended, counted, and used for flow cytometry. […] Where indicated, cells were diluted in 10% Trypan Blue and viable cells counted using a hemocytometer. […]

[1] = system: IL-5 and IL-13 in lung and BALF; assay: In vivo ILC activation (intranasal), lung analysis: Il5, Il13, Il17rb mRNA in lung mononuclear cells (qPCR), IL-5/IL-13 in BALF (LegendPlex); set-up: species or system mouse
Experimental: as §1
Lung analysis. Mice were sacrificed and perfused with cold PBS. Where indicated, after perfusion, broncho alveolar lavage (BAL) was obtained by injecting 1.5 ml cold PBS into the lungs via a secured tracheal cannula. BALF was centrifuged, and the supernatant was used for analyzing cytokine levels and the cell pellet was resuspended, counted, and used for flow cytometry. Following BAL, lung lobes were dissected. The post-caval lobe was fixed in buffered formalin for histological analysis. Single cell suspensions of the remaining lung parenchymal tissue were prepared with the GentleMACS lung dissociation kit (Miltenyi Biotec) according to the manufacturer's instructions. Where indicated, cells were diluted in 10% Trypan Blue and viable cells counted using a hemocytometer.
Quantitative real-time PCR. RNA was isolated using RNeasy Plus Mini Kit (Qiagen) and reverse transcribed to cDNA with iScript cDNA Synthesis Kit (Bio-Rad). Gene expression was analyzed by quantitative real-time PCR on a ViiA7 System (Thermo Fisher Scientific) using TaqMan Fast Advanced Master Mix (Thermo Fisher Scientific) with the following primer/probe sets: IL-5 (Mm00439646_m1), IL-13 (Mm00434204_m1), IL-17RB (Mm00444709_m1), Nmur1 (Mm04207994 m1), Nmur2 (Mm00600704_m1), and β-Actin (Applied Biosystems). Expression values were calculated relative to β-Actin detected in the same sample by duplex qPCR.
Cytokine quantification. Cytokine concentrations in BAL fluid, lung and supernatant of in vitro ILC cultures were analyzed by the LegendPlex Mouse Th Cytokine Panel (13-plex) (BioLegend) according to the manufacturer's instructions and analyzed on a FACS Calibur (BD Biosciences).
Mice and in vivo ILC activation. C57Bl/6J mice were purchased from the Jackson Laboratory. Nmur1-LacZ reporter mice with a LacZ cassette knocked into the Nmur1 locus were rederived from Nmur1^tm1.1(KOMP)Vleg sperm obtained from the trans-NIH Knock-Out Mouse Project (KOMP) Repository. NMU-deficient mice (NMU-KO) were rederived from B6.129S2-Nmu<tm1Mko> embryos from the RIKEN BioResource Center. For experiments with Nmur1-LacZ (Nmur1-KO) and NMU-KO mice, littermates that were either homozygous or heterozygous for the wild type allele were used as controls. Mice were housed under specific-pathogen-free conditions. For experiments, mice were matched for sex and age, and most mice were 6-10 weeks old. […] The total administered volume was 20 μl for all conditions. Mice were randomly assigned to treatment groups after matching for sex and age. […]
Lung analysis. […] BALF was centrifuged, and the supernatant was used for analyzing cytokine levels and the cell pellet was resuspended, counted, and used for flow cytometry. […]

## Neuromedin U (FRVDEEFQSPFASQSRGYFLFRPRN-NH2; listed as Homo sapiens) [NMU, neuropeptide ligand of Nmur1 (US Biological)]
eosinophils; intranasal daily for 3 days (500 ng IL-25, 20 μg NMU)
  eosinophils in BALF: only a mild increase; also recorded: small increase
eosinophils; intranasal daily for 3 days (500 ng IL-25, 20 μg NMU; FIG. 11: 250 ng IL-33, 10 μg NMU)
  eosinophils in lung parenchyma: did not increase
[1]; 250 ng IL-33 and 10 μg NMU (FIG. 11)
  IL-33-induced lung inflammation with NMU: little impact; also recorded: does not significantly amplify
[1]; NMU 20 μg intranasally for 3 consecutive days, no alarmin
  allergic lung inflammation induced by the substance alone: little effect; also recorded: minimal
[1]; NMU alone 20 μg intranasally for 3 days, LegendPlex
  IL-5 protein in BALF: only trace quantities
[1]; NMU co-administered with IL-25
  IL-25-induced allergic airway inflammation with NMU: dramatically enhanced; also recorded: amplifies
[1]; intranasal daily for 3 days (500 ng IL-25, 20 μg NMU), qPCR
  Il5 and Il13 mRNA expression in lung (lung mononuclear cells): did not cause a significant increase
